From patent US6576640B1, “Benzisoxazoles and phenones as α2-antagonists” (Janssen Pharmaceutica N.V., priority 1998, dated 2003)

Assays:
[1] = target: T1, cloned human α2A receptors (Homo sapiens, UniProt P08913); experiment: In vitro radioligand binding affinity for α2A receptor (3H-rauwolscine competition); conditions: read-out: dissociation: IC50 value for the α2a receptor
T1 construct: expressed in transfected cells; host or cells: Chinese Hamster Ovary (CHO) cells
T1 sequence (P08913 1-465): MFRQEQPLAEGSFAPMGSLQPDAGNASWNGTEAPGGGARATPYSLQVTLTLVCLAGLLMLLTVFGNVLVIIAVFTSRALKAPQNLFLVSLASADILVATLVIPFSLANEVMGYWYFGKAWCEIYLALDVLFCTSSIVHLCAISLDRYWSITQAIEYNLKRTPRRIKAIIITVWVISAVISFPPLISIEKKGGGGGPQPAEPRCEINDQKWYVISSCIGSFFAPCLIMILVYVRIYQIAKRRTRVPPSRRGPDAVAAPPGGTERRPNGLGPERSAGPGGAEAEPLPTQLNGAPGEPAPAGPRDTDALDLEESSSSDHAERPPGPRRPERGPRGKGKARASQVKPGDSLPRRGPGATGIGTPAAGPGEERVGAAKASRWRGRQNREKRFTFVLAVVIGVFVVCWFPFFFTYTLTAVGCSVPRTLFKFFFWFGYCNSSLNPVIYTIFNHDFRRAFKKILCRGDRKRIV
Description: The interaction of the compounds of formula (I) with α2 receptors was assessed in in vitro radioligand binding experiments.
In general, a low concentration of a radioligand with a high binding affinity for a particular receptor is incubated with a sample of a tissue preparation enriched in a particular receptor or with a preparation of cells expressing cloned human receptors in a buffered medium. During the incubation, the radioligand binds to the receptor. When equilibrium of binding is reached, the receptor bound radioactivity is separated from the non-bound radioactivity, and the receptor bound activity is counted. The interaction of the test compounds with the receptor is assessed in competition binding experiments. Various concentrations of the test compound are added to the incubation mixture containing the receptor preparation and the radioligand. Binding of the radioligand will be inhibited by the test compound in proportion to its binding affinity and its concentration.
The radioligand used for α2A, α2B and α2C receptor binding is ^3H-rauwolscine and the receptor preparation used is the Chinese Hamster Ovary (CHO) cell expressing cloned human α2A, α2B and α2C receptors.

dopamine D2 receptor = dopamine D2 receptor (Homo sapiens, UniProt P14416); experiment: Receptor binding affinity for dopamine D2 (dissociation α2a / D2); conditions: for Ratio D2/α2a (dissociation between the two receptors): ratio of IC50 D2 to IC50 α2a; for IC50: receptor binding affinity, dopamine D2
Chain of dopamine D2 receptor (P14416 whole entry, species assumed): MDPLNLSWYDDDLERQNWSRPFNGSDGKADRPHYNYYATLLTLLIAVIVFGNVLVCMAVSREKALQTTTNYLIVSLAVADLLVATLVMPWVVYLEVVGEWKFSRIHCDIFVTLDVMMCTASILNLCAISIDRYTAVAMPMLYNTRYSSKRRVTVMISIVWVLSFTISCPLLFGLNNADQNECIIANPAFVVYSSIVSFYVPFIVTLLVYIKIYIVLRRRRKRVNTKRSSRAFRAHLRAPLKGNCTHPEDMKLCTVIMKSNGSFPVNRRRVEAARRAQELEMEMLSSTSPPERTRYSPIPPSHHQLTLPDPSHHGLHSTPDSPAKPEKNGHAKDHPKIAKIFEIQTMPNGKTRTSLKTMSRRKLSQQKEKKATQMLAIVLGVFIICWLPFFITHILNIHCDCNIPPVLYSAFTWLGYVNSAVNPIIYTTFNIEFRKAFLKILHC
Excerpt: As already mentioned above, dopamine D2 antagonism may lead to an increased risk of EPS. Thus, the larger the dissociation between α2a and D2, the better. The columns headed “dissociation” show the IC50 value in molar (M) for the α2a receptor and the D2 receptor. By “Ratio” is meant the ratio D2/αa and this is an indication for the dissociation between said two receptors.

Row | IC50 [1] [nM] | Ratio D2/α2a (dissociation between the two receptors) (dopamine D2 receptor) | IC50 (dopamine D2 receptor) [nM] | melting point [°C] | SMILES
1 | 41 | 2.5 | 100 | – | O=C(CCCN1CCc2[nH]c3ccccc3c2C1)c1ccc(F)cc1 [reference compound]
2 | 5 | 79 | 400 | 190 | O=C(CCCCCN1CCc2[nH]c3ccccc3c2C1)c1ccc(F)cc1 [Comp. 1]
3 | 2.1 | 102 | 210 | – | O=C(CCCN1CCc2oc3ccccc3c2C1)c1ccc(F)cc1 [reference compound]

Row | SMILES | IC50 [1] [nM] | Ratio D2/α2a (dissociation between the two receptors) (dopamine D2 receptor) | IC50 (dopamine D2 receptor) [nM] | melting point [°C]
4 | O=C(CCCCCN1CCc2oc3ccccc3c2C1)c1ccc(F)cc1 [Comp. 2, 1-(4-fluorophenyl)-6-(1,2,3,4-tetrahydrobenzofuro[3,2-c]pyridin-2-yl)-1-hexanone (E)-2-butenedioate (1:1)] | 0.26 | 1950 | 500 | –
